Columns and labels:
[1] = Relative lipophilicity expressed as Rm value; format: physicochemical; conditions: octanol/water
[2] = Anticonvulsant activity against audiogenic seizures in DBA/2 mice expressed as ED50 values in clonic phase; format: functional; conditions: Mus musculus
[3] = Anticonvulsant activity against audiogenic seizures in DBA/2 mice expressed as ED50 values in tonic phase; format: functional; conditions: Mus musculus
[4] = Toxic dose in DBA/2 mice; format: toxicity; conditions: DBA/2, mouse, in vivo
[5] = Ratio between TD50 and ED50 from the clonic phase of audiogenic seizures; format: ADME; conditions: read-out: Protective index
[6] = Anticonvulsant activity against audiogenic seizures in DBA/2 mice expressed as ED50 values in clonic phase; Values ranges from: 22.0-35.1; format: functional; conditions: Mus musculus
[7] = Anticonvulsant activity against audiogenic seizures in DBA/2 mice expressed as ED50 values in tonic phase; Values ranges from: 16.1-31.5; format: functional; conditions: Mus musculus
[8] = Toxic dose in DBA/2 mice; Values ranges from: 59.6-132; format: toxicity; conditions: DBA/2, mouse, in vivo
[9] = Ratio between TD50 and ED50 from the clonic phase of audiogenic seizures in mice; format: ADME, organism-based; conditions: mouse, in vivo; read-out: Protective index
[10] = Anticonvulsant activity against audiogenic seizures in DBA/2 mice expressed as ED50 values in tonic phases; Values ranges from: 4.02-19.9; format: functional; conditions: Mus musculus
[11] = Anticonvulsant activity against audiogenic seizures in DBA/2 mice expressed as ED50 values in clonic phase; Values ranges from: 6.52-35.4; format: functional; conditions: Mus musculus
[12] = Toxic dose in DBA/2 mice; Values ranges from: 36.1-82.9; format: toxicity; conditions: DBA/2, mouse, in vivo
[13] = Toxic dose in DBA/2 mice; Values ranges from: 72.4-135; format: toxicity; conditions: DBA/2, mouse, in vivo
[14] = Anticonvulsant activity against audiogenic seizures in DBA/2 mice expressed as ED50 values in clonic phase; Values ranges from: 24.4-55.1; format: functional; conditions: Mus musculus
[15] = Toxic dose in DBA/2 mice; Values ranges from: 74.8-169; format: toxicity; conditions: DBA/2, mouse, in vivo
[16] = Anticonvulsant activity against audiogenic seizures in DBA/2 mice expressed as ED50 values in tonic phase; Values ranges from: 19.4-50.6; format: functional; conditions: Mus musculus

Structure (SMILES)	Rm [1]	ED50 [2] [µmol/kg]	ED50 [3] [µmol/kg]	TD50 [4] [µmol/kg]	selectivity ratio [5]	selectivity ratio [9]	further results
Sc1nnc(-c2ccccc2)c2cc3c(cc12)OCO3	0.05	–	–	–	–	3.2	ED50 [6]: 27.8 µmol/kg; ED50 [7]: 22.5 µmol/kg; TD50 [8]: 89 µmol/kg
Nc1ccc(-c2nnc(S)c3cc4c(cc23)OCO4)cc1	-0.205	–	–	–	–	3.6	ED50 [10]: 8.94 µmol/kg; ED50 [11]: 15.2 µmol/kg; TD50 [12]: 54.7 µmol/kg
Nc1ccc(C2=NNC(=O)Cc3cc4c(cc32)OCO4)cc1	-0.43	–	–	–	–	4.5	TD50 [13]: 99.1 µmol/kg
O=[N+]([O-])c1ccc(-c2nnc(O)c3cc4c(cc23)OCO4)cc1	–	> 100	> 100	–	–	–	–
Oc1nnc(-c2ccccc2)c2cc3c(cc12)OCO3	-0.158	–	–	–	–	3.1	ED50 [14]: 36.7 µmol/kg; TD50 [15]: 112 µmol/kg; ED50 [16]: 31.3 µmol/kg

Second part, led by results:

Rm [1]	Structure (SMILES)	ED50 [2] [µmol/kg]	ED50 [3] [µmol/kg]	TD50 [4] [µmol/kg]	selectivity ratio [5]	selectivity ratio [9]	further results
0.108	Nc1ccc(-c2nn(C(=O)NC3CCCCC3)c(=O)c3cc4c(cc23)OCO4)cc1	28.4	26.2	63.8	2.2	–	–
-0.235	CCNC(=O)n1nc(-c2ccc(N)cc2)c2cc3c(cc2c1=O)OCO3	42.6	35.1	91.1	2.1	–	–
-0.364	CNC(=O)n1nc(-c2ccc(N)cc2)c2cc3c(cc2c1=O)OCO3	23.4	16.8	59.4	2.5	–	–
0.101	CCCCCNC(=O)n1nc(-c2ccc(N)cc2)c2cc3c(cc2c1=O)OCO3	13.2	5.34	56.6	4.3	–	–

Reference: ChEMBL document CHEMBL1133456, “Synthesis and anticonvulsant activity of novel and potent 6,7-methylenedioxyphthalazin-1(2H)-ones” (J Med Chem, 2000)
